Patent US20100137449A1, “SUBSTITUTED 1,3-CYCLOPENTADIONE MULTI-TARGET PROTEIN KINASE MODULATORS OF CANCER, ANGIOGENESIS AND THE INFLAMMATORY PATHWAYS ASSOCIATED THEREWITH” (METAPROTEOMICS, LLC, priority 2007, published 2010)

How the values were obtained:
Assay in all cases: KinaseProfiler Assay
[1] = molecular target: T1, EphA3(h) (Homo sapiens, UniProt P29320)
T1 sequence (P29320 21-983): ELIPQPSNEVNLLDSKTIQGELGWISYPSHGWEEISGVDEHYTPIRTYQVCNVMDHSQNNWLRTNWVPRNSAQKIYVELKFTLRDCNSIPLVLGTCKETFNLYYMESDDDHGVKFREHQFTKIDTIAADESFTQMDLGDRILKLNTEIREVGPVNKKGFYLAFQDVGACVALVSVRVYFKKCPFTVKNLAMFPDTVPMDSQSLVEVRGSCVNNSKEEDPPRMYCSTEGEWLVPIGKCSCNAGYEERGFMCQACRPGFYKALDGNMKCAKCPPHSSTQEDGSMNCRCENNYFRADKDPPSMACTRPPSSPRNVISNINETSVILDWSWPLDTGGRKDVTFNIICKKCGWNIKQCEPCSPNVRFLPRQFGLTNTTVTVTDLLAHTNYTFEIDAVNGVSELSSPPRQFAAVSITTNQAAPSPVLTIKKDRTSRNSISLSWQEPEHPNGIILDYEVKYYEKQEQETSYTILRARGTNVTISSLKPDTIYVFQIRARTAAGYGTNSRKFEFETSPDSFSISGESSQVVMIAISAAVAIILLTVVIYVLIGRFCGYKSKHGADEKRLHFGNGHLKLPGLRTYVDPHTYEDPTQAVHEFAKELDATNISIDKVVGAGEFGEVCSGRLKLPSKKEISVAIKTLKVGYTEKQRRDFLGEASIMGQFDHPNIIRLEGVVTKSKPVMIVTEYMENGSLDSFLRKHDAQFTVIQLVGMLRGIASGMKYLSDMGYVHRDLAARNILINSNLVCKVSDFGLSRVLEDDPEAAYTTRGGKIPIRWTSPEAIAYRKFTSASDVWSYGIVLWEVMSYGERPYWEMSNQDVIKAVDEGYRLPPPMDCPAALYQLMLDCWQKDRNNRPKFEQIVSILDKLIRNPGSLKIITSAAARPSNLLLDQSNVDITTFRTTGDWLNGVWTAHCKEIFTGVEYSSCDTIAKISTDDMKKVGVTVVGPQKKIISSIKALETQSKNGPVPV

[2] = molecular target: Ron(h) (Homo sapiens, UniProt Q04912)
Chain of Ron(h) (Q04912 25-1400): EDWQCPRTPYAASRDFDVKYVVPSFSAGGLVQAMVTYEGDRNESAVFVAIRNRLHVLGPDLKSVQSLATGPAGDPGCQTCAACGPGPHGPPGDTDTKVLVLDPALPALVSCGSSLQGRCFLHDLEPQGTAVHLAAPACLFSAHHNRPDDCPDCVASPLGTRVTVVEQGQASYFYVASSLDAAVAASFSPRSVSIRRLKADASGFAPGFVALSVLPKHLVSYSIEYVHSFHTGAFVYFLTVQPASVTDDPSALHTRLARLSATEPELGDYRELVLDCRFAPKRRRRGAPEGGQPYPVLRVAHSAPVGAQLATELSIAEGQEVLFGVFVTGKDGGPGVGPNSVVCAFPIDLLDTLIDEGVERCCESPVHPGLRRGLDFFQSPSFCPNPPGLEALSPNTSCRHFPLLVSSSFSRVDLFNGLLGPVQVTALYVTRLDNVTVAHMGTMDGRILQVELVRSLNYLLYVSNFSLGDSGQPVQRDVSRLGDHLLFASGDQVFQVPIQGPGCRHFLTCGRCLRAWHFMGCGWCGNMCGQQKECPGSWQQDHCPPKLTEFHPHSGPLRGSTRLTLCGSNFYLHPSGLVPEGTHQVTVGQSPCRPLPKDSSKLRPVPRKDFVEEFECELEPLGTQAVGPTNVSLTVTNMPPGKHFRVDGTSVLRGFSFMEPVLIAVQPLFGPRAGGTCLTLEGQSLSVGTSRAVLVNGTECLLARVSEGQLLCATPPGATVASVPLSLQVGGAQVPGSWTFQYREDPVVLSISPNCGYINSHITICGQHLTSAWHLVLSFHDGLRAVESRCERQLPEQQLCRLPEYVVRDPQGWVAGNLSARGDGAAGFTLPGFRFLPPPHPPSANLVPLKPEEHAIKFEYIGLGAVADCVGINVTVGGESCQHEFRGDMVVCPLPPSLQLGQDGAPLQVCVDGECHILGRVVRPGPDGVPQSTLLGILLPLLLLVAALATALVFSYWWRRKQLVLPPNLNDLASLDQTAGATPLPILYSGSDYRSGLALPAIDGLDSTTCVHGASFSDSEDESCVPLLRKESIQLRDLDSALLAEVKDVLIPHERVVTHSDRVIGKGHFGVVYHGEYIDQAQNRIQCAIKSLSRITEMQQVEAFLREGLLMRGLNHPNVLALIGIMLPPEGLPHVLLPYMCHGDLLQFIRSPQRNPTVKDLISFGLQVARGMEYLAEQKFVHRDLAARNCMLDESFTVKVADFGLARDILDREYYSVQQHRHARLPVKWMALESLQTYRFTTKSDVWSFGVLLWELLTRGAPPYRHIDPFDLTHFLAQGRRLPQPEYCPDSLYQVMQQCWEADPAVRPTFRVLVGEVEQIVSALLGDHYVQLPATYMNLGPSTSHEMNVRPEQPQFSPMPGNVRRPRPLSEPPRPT

[3] = molecular target: cKit(D816H)(h) (Homo sapiens, UniProt P10721, D816H)
Chain of cKit(D816H)(h) (P10721 26-976 D816H): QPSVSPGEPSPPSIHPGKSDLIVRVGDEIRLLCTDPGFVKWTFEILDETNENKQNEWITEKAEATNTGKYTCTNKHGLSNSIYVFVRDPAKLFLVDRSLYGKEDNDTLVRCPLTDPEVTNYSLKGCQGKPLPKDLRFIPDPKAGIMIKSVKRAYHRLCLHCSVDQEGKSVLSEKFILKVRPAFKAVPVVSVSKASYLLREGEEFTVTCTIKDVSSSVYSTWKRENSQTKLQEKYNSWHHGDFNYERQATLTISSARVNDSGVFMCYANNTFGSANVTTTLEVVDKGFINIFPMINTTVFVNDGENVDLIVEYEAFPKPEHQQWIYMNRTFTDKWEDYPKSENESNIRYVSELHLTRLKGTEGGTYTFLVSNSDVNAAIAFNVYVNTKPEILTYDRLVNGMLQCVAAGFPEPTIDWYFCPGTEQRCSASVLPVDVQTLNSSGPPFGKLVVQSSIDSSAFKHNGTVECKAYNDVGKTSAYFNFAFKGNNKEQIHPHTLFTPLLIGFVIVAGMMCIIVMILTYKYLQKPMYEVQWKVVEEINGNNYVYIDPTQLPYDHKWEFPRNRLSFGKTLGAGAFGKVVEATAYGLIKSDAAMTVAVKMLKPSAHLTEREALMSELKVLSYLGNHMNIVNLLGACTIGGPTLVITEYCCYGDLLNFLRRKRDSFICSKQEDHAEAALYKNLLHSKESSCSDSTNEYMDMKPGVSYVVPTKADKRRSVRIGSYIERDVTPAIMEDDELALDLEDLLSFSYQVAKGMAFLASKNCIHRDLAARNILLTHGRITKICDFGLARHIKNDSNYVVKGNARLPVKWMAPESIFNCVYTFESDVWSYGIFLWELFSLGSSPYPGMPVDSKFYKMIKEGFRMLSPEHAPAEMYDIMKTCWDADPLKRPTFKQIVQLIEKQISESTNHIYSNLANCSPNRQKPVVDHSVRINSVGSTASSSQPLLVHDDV

[4] = molecular target: PKBα(h) (Homo sapiens, UniProt P31749)
Chain of PKBα(h) (P31749 whole entry): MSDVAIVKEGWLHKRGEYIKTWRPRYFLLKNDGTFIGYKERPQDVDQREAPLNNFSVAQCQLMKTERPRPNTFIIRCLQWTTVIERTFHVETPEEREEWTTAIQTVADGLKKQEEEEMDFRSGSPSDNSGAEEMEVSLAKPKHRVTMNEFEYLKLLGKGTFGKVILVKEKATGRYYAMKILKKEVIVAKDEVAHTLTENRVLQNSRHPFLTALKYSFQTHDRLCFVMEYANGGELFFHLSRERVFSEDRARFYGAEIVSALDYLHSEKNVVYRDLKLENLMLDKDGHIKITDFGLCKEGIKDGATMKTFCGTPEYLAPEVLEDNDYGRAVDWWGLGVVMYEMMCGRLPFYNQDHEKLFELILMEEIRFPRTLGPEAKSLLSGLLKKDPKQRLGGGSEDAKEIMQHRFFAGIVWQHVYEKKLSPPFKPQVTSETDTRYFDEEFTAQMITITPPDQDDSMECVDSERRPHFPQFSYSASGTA

[5] = molecular target: CDK2/cyclinA(h) (Homo sapiens, UniProt P24941)
[6] = molecular target: CDK6/cydinD3(h) (Homo sapiens, UniProt Q00534)
Chain of CDK6/cydinD3(h) (Q00534 whole entry): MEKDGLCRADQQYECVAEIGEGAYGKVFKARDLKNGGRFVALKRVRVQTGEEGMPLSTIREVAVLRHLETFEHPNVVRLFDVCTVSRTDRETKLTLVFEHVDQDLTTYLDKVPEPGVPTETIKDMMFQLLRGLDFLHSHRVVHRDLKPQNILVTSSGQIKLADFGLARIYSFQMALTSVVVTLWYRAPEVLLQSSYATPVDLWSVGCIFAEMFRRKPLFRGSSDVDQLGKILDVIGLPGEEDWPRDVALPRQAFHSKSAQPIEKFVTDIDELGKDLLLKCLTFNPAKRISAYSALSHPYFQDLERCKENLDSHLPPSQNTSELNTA
Chain of CDK6/cydinD3(h) (P30281 whole entry partner): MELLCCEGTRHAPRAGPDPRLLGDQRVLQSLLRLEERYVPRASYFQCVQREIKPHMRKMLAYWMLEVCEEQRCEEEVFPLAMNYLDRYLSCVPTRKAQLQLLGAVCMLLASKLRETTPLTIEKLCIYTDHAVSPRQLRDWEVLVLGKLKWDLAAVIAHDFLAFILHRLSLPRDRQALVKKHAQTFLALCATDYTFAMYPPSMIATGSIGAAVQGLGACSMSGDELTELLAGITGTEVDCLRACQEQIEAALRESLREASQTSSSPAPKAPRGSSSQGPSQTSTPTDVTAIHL

[7] = molecular target: T2, Flt3(h) (Homo sapiens, UniProt P36888)
T2 sequence (P36888 27-993): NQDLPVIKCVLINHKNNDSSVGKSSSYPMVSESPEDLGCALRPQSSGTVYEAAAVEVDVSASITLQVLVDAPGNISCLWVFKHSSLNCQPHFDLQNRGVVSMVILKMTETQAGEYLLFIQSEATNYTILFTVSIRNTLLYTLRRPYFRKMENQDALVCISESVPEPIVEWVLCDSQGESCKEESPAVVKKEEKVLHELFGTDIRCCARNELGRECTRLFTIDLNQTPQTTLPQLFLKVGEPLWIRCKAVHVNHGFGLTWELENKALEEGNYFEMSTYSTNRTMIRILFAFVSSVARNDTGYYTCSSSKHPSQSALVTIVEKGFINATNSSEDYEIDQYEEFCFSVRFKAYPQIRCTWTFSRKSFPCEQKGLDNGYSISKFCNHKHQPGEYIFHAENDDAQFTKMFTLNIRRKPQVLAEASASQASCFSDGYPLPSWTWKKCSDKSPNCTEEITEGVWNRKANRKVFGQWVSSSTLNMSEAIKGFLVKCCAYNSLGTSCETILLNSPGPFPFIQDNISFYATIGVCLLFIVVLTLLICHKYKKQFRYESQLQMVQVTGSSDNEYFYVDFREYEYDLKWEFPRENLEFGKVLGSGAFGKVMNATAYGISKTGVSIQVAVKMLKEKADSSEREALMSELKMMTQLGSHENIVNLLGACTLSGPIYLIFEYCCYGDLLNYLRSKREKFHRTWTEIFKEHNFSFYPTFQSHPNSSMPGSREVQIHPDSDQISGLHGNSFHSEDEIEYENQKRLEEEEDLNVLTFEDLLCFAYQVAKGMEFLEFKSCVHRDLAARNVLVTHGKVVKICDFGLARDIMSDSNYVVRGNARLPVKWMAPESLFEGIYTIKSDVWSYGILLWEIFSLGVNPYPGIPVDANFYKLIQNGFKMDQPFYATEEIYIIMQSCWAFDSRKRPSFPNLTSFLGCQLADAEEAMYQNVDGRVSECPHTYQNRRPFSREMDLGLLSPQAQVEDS

[8] = molecular target: FGFR2(h) (Homo sapiens, UniProt P21802)
Chain of FGFR2(h) (P21802 22-821): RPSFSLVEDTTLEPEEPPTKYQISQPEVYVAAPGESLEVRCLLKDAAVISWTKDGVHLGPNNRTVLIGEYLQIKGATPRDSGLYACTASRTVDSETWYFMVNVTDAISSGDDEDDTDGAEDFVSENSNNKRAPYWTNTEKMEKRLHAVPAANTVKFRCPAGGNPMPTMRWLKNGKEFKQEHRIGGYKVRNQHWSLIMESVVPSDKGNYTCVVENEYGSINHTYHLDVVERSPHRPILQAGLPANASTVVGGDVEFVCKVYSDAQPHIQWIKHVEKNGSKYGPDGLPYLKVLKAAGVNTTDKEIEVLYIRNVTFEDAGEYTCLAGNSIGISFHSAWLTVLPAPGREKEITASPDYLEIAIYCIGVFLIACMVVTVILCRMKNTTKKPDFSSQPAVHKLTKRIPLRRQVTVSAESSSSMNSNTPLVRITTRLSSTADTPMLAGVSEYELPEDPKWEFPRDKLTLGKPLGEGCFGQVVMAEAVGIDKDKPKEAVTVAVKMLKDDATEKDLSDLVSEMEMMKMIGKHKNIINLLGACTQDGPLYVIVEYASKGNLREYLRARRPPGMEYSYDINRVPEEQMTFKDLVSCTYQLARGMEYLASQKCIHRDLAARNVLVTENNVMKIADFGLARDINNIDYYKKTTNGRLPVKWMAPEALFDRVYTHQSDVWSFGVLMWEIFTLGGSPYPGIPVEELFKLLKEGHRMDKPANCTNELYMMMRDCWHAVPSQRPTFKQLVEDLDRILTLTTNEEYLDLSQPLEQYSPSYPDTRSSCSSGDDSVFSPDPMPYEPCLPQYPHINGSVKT

SMILES: CC(C)CCC(=O)[C@]1(O)C(O)=C(C(=O)C(C)C)C(=O)[C@H]1CCC(C)C [TH2, tetrahydroiso-cohumulone]
- kinase inhibition ([1]; 1 μg/ml): 93% of control
- kinase inhibition ([1]; 5 μg/ml): 91% of control
- kinase inhibition ([1]; 25 μg/ml): 98% of control
- kinase inhibition ([1]; 50 μg/ml): 87% of control
- kinase inhibition ([1]; 100 μg/ml): 84% of control
- kinase inhibition ([2]; 1 μg/ml): 123% of control
- kinase inhibition ([2]; 5 μg/ml): 124% of control
- kinase inhibition ([2]; 25 μg/ml): 123% of control
- kinase inhibition ([2]; 50 μg/ml): 116% of control
- kinase inhibition ([2]; 100 μg/ml): 94% of control
- kinase inhibition ([3]; 1 μg/ml): 123% of control
- kinase inhibition ([3]; 5 μg/ml): 116% of control
- kinase inhibition ([3]; 25 μg/ml): 104% of control
- kinase inhibition ([3]; 50 μg/ml): 114% of control
- kinase inhibition ([3]; 100 μg/ml): 108% of control
- kinase inhibition ([4]; 1 μg/ml): 123% of control
- kinase inhibition ([4]; 5 μg/ml): 130% of control
- kinase inhibition ([4]; 25 μg/ml): 126% of control
- kinase inhibition ([4]; 50 μg/ml): 118% of control
- kinase inhibition ([4]; 100 μg/ml): 79% of control
- kinase inhibition ([5]; 1 μg/ml): 114% of control
- kinase inhibition ([5]; 5 μg/ml): 124% of control
- kinase inhibition ([5]; 25 μg/ml): 95% of control
- kinase inhibition ([5]; 50 μg/ml): 98% of control
- kinase inhibition ([5]; 100 μg/ml): 87% of control
- kinase inhibition ([6]; 1 μg/ml): 120% of control
- kinase inhibition ([6]; 5 μg/ml): 109% of control
- kinase inhibition ([6]; 25 μg/ml): 117% of control
- kinase inhibition ([6]; 50 μg/ml): 105% of control
- kinase inhibition ([6]; 100 μg/ml): 92% of control
- kinase inhibition ([7]; 1 μg/ml): 107% of control
- kinase inhibition ([7]; 5 μg/ml): 99% of control
- kinase inhibition ([7]; 25 μg/ml): 109% of control
- kinase inhibition ([7]; 50 μg/ml): 95% of control
- kinase inhibition ([7]; 100 μg/ml): 84% of control
- kinase inhibition ([8]; 1 μg/ml): 111% of control
- kinase inhibition ([8]; 5 μg/ml): 98% of control
- kinase inhibition ([8]; 25 μg/ml): 102% of control
- kinase inhibition ([8]; 50 μg/ml): 96% of control
- kinase inhibition ([8]; 100 μg/ml): 78% of control
